For experiment [1], the system named is skin fibroblasts. Nature of the experiment: Viability of fibroblasts exposed to BSA reacted with ribose, resazurin dye. As to conditions: positive control for preventing glycation; human dermal fibroblasts exposed to glycated protein. Format: cell-based. As for the experimental part: In some examples discussed herein, comparison was made between the skin care compositions of the present technology and those containing pyridoxamine as a positive control. It was shown that a population of human dermal fibroblasts (HDFs) exposed to glycated proteins is generally expected to collapse. Specifically, glycated protein (such as bovine serum albumin, BSA), when added to normally cultured skin fibroblasts at a concentration in the range of 2 to 6 mg/mL, caused cell death within approximately 18 to 36 hours. […] A series of tests was conducted to evaluate the skin care compositions of the present technology, to see whether they could prevent the target protein of BSA from being toxic to skin fibroblasts. This was done by first reacting BSA with the sugar (ribose) in a buffered saline solution. Some of the reaction mixtures also contained pyridoxamine (a drug used here as the positive control known to prevent glycation) or the skin care compositions of the present technology. […] After exposure of the cells to these solutions at 37° C. for 24 hours, the viability of the cells was determined by adding a dye (resazurin) to the wells and incubating at 37° C. for another hour. […] The color change in the wells was then measured as optical density on a plate-reading spectrophotometer. […]
Background: Resazurin is reduced to fluorescent resorufin, in cell work by metabolically active cells.

For experiment [2], the system named is skin fibroblasts. Nature of the experiment: Viability and attachment of confluent fibroblasts exposed to BSA reacted with ribose, neutral red dye, microscopy. Format: cell-based, human. As to conditions: BSA reacted with 100 millimolar ribose in presence of 10 millimolar pyridoxamine; 2 mg/mL BSA, 16 hours; FIG. 6. The protocol: A further series of tests was conducted to evaluate the skin care compositions of the present technology, to see whether they could prevent the target protein of BSA from being toxic to skin fibroblasts. This was done by first reacting BSA with the glycating sugar (ribose) in a buffered saline solution. Some of the reaction mixtures also contained pyridoxamine (a drug used here as the positive control known to prevent glycation) or the skin care compositions of the present technology. For this test, incubation of the sterile reaction mixtures was for two days at a temperature of about 45° C. After that, the reaction mixtures were extensively dialyzed against deionized water, removing all of the small molecules (ribose, salts, etc.) from the mixtures, leaving just the BSA. The resulting BSA solutions were then lyophilized (freeze-dried) to remove water, and the residues of BSA were resolubilized in a buffered saline solution. After measuring the protein concentration of each of these solutions, they were each added to a cell culture dish containing confluent fibroblasts to achieve a final BSA concentration of 2 milligrams per milliliter. After exposure of the cells to these solutions at 37° C. for 16 hours, the viability of the cells was determined by adding a dye (neutral red) to the plates and incubating at 37° C. for another hour. […]

Consider `Cc1ncc(CO)c(CN)c1O` [pyridoxamine], for which, in experiment [1], the “effect on fibroblast collapse” value is reported as “mitigated some of the collapse”. Besides, the “health of fibroblasts (neutral red uptake, attachment)” value in experiment [2] was “have remained healthy”.

The values above are taken from patent publication US20150104399A1, “PREVENTION OF FIBROBLAST COLLAPSE” (Biocogent, LLC, priority 2012, published 2015).
